According to a melting point compilation (Tetko et al.):

Row | SMILES | melting point [°C]
1 | CC(=O)OC1CC2C3CCC(C(C)CCCC(C)C)C3(C)CCC2C2(C)CCC(O)CC12O (configuration not stated) | 141
2 | COc1cc(CC#N)cc(OC)c1OC | 77
3 | OCc1cc(-c2ccco2)[nH]n1 | 159
4 | O=C(O)C(=O)c1cccs1 | 89 to 95
5 | CC(CC(N)=O)n1nc2ccccc2n1 (configuration not stated) | 152
6 | O=C=Nc1ccc(Br)cc1 | 41
7 | CCOC(O)=C1C=NC2=C(CNN2C)C1=O | 139
8 | O=[N+]([O-])c1cc2nccnc2cc1[N+](=O)[O-] | 188 to 191
9 | CCN(CC)CCC#N | -64
10 | Cc1cc(F)ccc1N | 14.2
11 | O=C1C(Cl)=C(Cl)C(Cl)=C(Cl)C1(Cl)Cl | 46 to 49
12 | CC1(C)C2CCC1(C)C(NC(=O)c1ccc([N+](=O)[O-])cc1)C2NC(=O)c1ccc([N+](=O)[O-])cc1 (configuration not stated) | 170
13 | C/C=C/C1Nn2c(nnc2-c2ccccc2OC)S1 (configuration not stated) | 124 to 126
14 | CC(=O)Nc1ccccc1-c1onc(-c2ccccc2)c1-c1ccccc1 | 190
15 | Cc1ccc(-c2csc(/C(C#N)=N\Nc3ccc(Cl)cc3)n2)cc1 | 172
16 | O=Cc1c[nH]c2cc(Br)ccc12 | 202 to 203
17 | CNC(=O)C(C)SCCSP(=O)(OC)OC (configuration not stated) | 43
18 | Nc1ccc(C(=O)NC(CCC(=O)O)C(=O)O)cc1 (configuration not stated) | 173
19 | Cc1ccccc1NN=C1C(=O)NC(=S)NC1=O | 242

Row | SMILES | melting point [°C]
20 | Cc1oc(C(C)(C)C)cc1C(=O)Cl | 41 to 44
21 | CC=Cc1cc(OC)c(OC)cc1OC | 62.5
22 | O=C1/C(=N/Nc2ccc(Cl)cc2)C(C(F)(F)F)=NN1c1ccccc1 | 180
23 | Cc1cccc(OP(=O)(Oc2cccc(C)c2)Oc2cccc(C)c2)c1 | 25.5
24 | c1ccc(C2=NCCN2)cc1 | 96.5
25 | CCOC(=O)C1=C(C)NC(C)=C(C(=O)OCC)C1 | 180
26 | C=CC(=O)OCCCCO | -112
27 | O=C(O)c1ccc(-c2cccs2)cc1 | 240 to 244
28 | CC(C)(C)OC(=O)N[C@@H](CCC(=O)O)C(=O)O | 110 to 113
29 | N=c1sc(C(=O)c2cccs2)nn1-c1ccccc1 | 134
30 | NC(=O)OCC(Cl)(Cl)Cl | 64
31 | O=C(c1ccc(OCc2ccccc2)cc1)c1cn(C(=O)c2ccc(OCc3ccccc3)cc2)c2ccccc12 | 181
32 | Cc1noc(C)c1C=O | 35 to 38
33 | C#CC(O)COc1cccc(C(F)(F)F)c1 (configuration not stated) | 32
34 | OCC1=CCN2CCC(O)C12 (configuration not stated) | 120
35 | Cc1nn(-c2ccccc2)c(Cl)c1C=O | 144 to 148
36 | COc1cc(C(=O)O)cc(Cl)n1 | 214 to 216
37 | Cc1oc(-c2ccccc2)nc1C(=O)Cl | 135 to 136
38 | N#Cc1ccoc1 | 29 to 31

Row | SMILES | melting point [°C]
39 | Cc1csc(C(=O)Cl)c1Cl | 57 to 58
40 | C[Si](C)(C)c1ccc([Si](C)(C)C)cc1 | 92 to 96
41 | CC(O)c1ccc2ccccc2c1 (configuration not stated) | 74
42 | Clc1cccc2cccnc12 | -20
43 | O=C(Cl)C(=O)Cl | -12
44 | N#Cc1ccc([N+](=O)[O-])cc1C#N | 140 to 144
45 | CCc1ccc(C(=O)NN(C(=O)c2cc(C)cc(C)c2)C(C)(C)C)cc1 | 191
46 | C/C(CCc1oc2ccc(Cl)cc2c1-c1ccc(C)o1)=N/O | 114 to 115
47 | O=C(O)c1cc([N+](=O)[O-])ccc1Br | 180
48 | CCSc1nnc(CCn2c(C)nc3ccccc32)n1-c1ccccc1 | 110
49 | c1nnn[nH]1 | 157
50 | COC(=O)C(Cl)C(C)=O (configuration not stated) | -33
51 | Nc1cnn(-c2ccccc2)c(=O)c1Br | 224
52 | COc1c(Cl)cc([N+](=O)[O-])cc1Cl | 97 to 100
53 | O=C(O)CN(CCN(CC(=O)O)CC(=O)O)CC(=O)O | 220
54 | CC(C)c1nc2ccccc2[nH]1 | 235
55 | CC(C)(C)c1cc(O)c(O)c(C(C)(C)C)c1 | 96 to 99
56 | O=Cc1cccc(Br)c1 | 20
57 | COc1ccc(C2Cc3ccccc3C(C)(O)O2)cc1 (configuration not stated) | 102

Further lines, results first:

Row | melting point [°C] | SMILES
58 | 92 | O=C(N(c1ccccc1)c1ccccc1)C(F)(F)C(F)(F)C(F)(F)C(F)(F)C(F)(F)C(F)(F)C(F)(F)C(F)(F)F
59 | 22 | CCCCCCC(O)CC (configuration not stated)
60 | 71.2 | Cc1cc(C(C)(C)C)c(C)cc1O
61 | 173 | CC(=O)N1N=C(c2ccc3ccccc3c2)CC1c1ccccc1Cl (configuration not stated)
62 | 63 | CC(C)(C)OC(=O)N1CCC(O)CC1
63 | 122 | Nc1ccc(C=CC(=O)O)cc1
64 | 211 | O=C(Nc1ccc(Cl)cc1C(O)c1ccccc1)c1ccncc1 (configuration not stated)
65 | 116 to 117 | COC(=O)c1ccc(CS(=O)(=O)Cl)cc1
66 | 159 to 160 | Cc1ccc(C=C2N=C(c3ccccc3)OC2=O)o1
67 | 129 to 131 | Cc1ccc(S(=O)(=O)OC2CCC3(C)C(CCC4C5CCCC5(C)CCC43)C2)cc1 (configuration not stated)
68 | 139 | CC1=CC(C(=O)O)c2ccccc21 (configuration not stated)
69 | 218 to 220 | N[C@H]1CCC[C@H]1C(=O)O (relative stereo)
70 | -20 | OCCC1CCCCC1
71 | 72 | CC(=O)C(C#N)c1ccccc1[N+](=O)[O-] (configuration not stated)
72 | 250 | NC(=O)NC12CC3CC(CC(C3)C1)C2
73 | 29 to 33 | O=C(OCc1ccccc1)OCc1ccccc1
74 | 176 | CC(CCC(=O)O)C1CCC2C3C(=O)CC4CCCCC4(C)C3CC(=O)C12C (configuration not stated)
75 | 38 | O=S(=O)(Cl)c1cc(Cl)ccc1Cl
76 | 153 to 156 | NC(=S)N1CCOCC1
77 | 237 to 240 | O=C(O)c1ccnnc1
78 | 43 to 44 | Cc1noc(-c2ccccc2Br)n1
79 | 191 | O=C1C=C(NCc2cccc(Cl)c2)C(=O)c2ccccc21
80 | 43 | Nc1ccc(SC(F)(F)F)c(Cl)c1
81 | 106 | CCOC(=O)C(Cc1c[nH]c2ccccc12)NC(C)=O (configuration not stated)
82 | 40 to 45 | N[C@@H]1CCCC[C@H]1N

Row | melting point [°C] | SMILES
83 | 100 to 101 | O=C(Cl)c1ccc2c(c1)OCCO2
84 | 93 | Nc1ccnc(Cl)c1
85 | 166 | COc1ccc(-c2nnc3n2NC(c2ccccc2OC)S3)cc1 (configuration not stated)
86 | 62 | FC(F)(F)c1cc(Cl)c2cccc(Cl)c2n1
87 | 36.5 | O=C1CCCCCCN1
88 | 108 to 111 | CCOC(=O)c1sc(SC)c2c1CCCC2=O
89 | -89 | CC1CCC(C)S1 (configuration not stated)
90 | 278 | Cc1cnc2c(ccc3c(C)c(C)cnc32)c1C
91 | 183 to 185 | N#Cc1c(N)oc(-c2ccco2)c1-c1ccco1
92 | 185 | Cc1nnsc1C(=O)O
93 | -26 | C1COCO1
94 | 64 to 69 | CC1CC(=O)C(=O)C1C (configuration not stated)
95 | 185 to 187 | COc1cc(CNC(=O)c2[nH]c3ccccc3c2CCO)cc(OC)c1
96 | 58 to 60 | COc1cc(C=C(O)C(F)(F)C(F)(F)F)nc(OC)n1
97 | 150 to 152 | CCOc1cc2c(cc1OCC)C(=S)NCC2
98 | 194 | NC(=O)C1c2ccccc2CCc2ccccc21
99 | 229 to 231 | O=C(O)c1ccc2nsnc2c1
100 | 218 to 221 | Cc1ccc(Sc2ncccc2C(=O)O)cc1
101 | 47 to 49 | CCCCCCCCNC(=S)NN
102 | 32 | Cc1cc(O)ccc1F
103 | 123 | Cc1cccc2c1ccc1ccccc12
104 | 134 to 139 | O=C(O)c1c(F)c(F)c(F)c(F)c1[N+](=O)[O-]
105 | -50 | CC(O)CNCCN (configuration not stated)
106 | 80 to 82 | CC(C)C(NC(=O)C(C)(C)Br)C(C)C
107 | 234 to 235 | Cc1nc2sc3c(c2c(=O)n1NC(=O)c1ccc(Cl)cc1)CCCC3

Row | melting point [°C] | SMILES
108 | 111 | Cc1cccc(N(C)C(=S)Oc2ccc3ccccc3c2)c1
109 | 178 | CN1CCCN=C1C=Cc1cccs1
110 | 126 to 128 | NCCNc1ccc([N+](=O)[O-])cn1
111 | 166 | CC(NC(=O)c1ccccc1)C(=O)O (racemic)
112 | 202 to 204 | O=C(O)c1cnn(-c2ccc([N+](=O)[O-])cc2)c1C(F)(F)F
113 | 142 to 145 | O=C(c1ccccc1)c1ccc(N2CCOCC2)cc1
114 | 61 to 62 | N#Cc1ccccc1N=C=O
115 | 341 | O=C(O)c1ccc2c(c1)C(=O)c1ccccc1-2
116 | -25 | CCOCCOCCOC(C)=O
117 | 50 to 51 | Fc1cc(Br)cc(Br)c1N=C=S
118 | 123 | CC(C)OC(=O)C1(S(=O)(=O)c2ccc([N+](=O)[O-])cc2)CC1
119 | 115 to 118 | NC(=O)c1c(N)cccc1F
120 | 136 | O=C(c1ccc(C(=O)C(Cl)(Cl)Cl)cc1)C(Cl)Cl
121 | 95 | CC(C)(C)c1cc([N+](=O)[O-])c(O)c([N+](=O)[O-])c1
122 | 100 | CC(NC(=O)C(F)(F)C(F)(F)C(F)(F)C(F)(F)C(F)(F)C(F)(F)C(F)(F)C(F)(F)F)c1ccccc1 (configuration not stated)
123 | 89 | CC(C)C/C(Cc1ccccc1)=N\NC(N)=O
124 | 83.5 | OC(CNc1ccccn1)c1ccccc1 (configuration not stated)
125 | 116 | Cc1cccc(C)c1C(=O)O
126 | 141 to 148 | O=C(O)Cc1c[nH]c2ccc(Br)cc12
127 | 325 | Nc1ccc2c(c1)C(=O)c1ccc(N)cc1C2=O
128 | 214 to 218 | O=C(O)/C=C/c1ccc(F)cc1F
129 | 59 | CCCCCCC(C)OC(=O)COc1nc(F)c(Cl)c(N)c1Cl (configuration not stated)
130 | 265 | CC(=O)OC1CC2C(C)C(=O)C3(C4CC5C(C)(C)CCC(OC(C)=O)C5(C(OC(C)=O)O4)C13)C2OC(C)=O (configuration not stated)
131 | 174 | CC(C)[C@]12C/C(=N\NC(N)=O)[C@H](C)[C@H]1C2
132 | 234 to 236 | CS(=O)(=O)c1csc(C(=O)O)c1Cl
